Where “and” joins values, the source holds several entries; their conditions need not be identical. Identical values can stand only once. Numbered stars: 1 amine (or outer) side, 2 acyl side, 3 side chain; on linkers, the order of the positions; unused ones are H or OH. Square brackets hold non-standard residues; d marks the D form. Peptide text beside a SMILES is read from it. * marks the point of attachment. ξ: configuration not given here. pY = N[C@@H](Cc1ccc(OP(=O)(O)O)cc1)C(=O)O; Dip = N[C@H](C(=O)O)C(c1ccccc1)c1ccccc1; NH(1S-phenylethyl) = C[C@H](N*)c1ccccc1; X2 = O=C([C@H]1CCCN([*:1])C1)[*:2]; Met(O) = CS(=O)CC[C@H](N)C(=O)O; Ile(3ξ) = CCC(C)[C@H](N)C(=O)O; NMeL = CN[C@@H](CC(C)C)C(=O)O; Thr(3ξ) = CC(O)[C@H](N)C(=O)O; 3Abz = Nc1cccc(C(=O)O)c1; Ac6c = NC1(C(=O)O)CCCCC1; Piperidide = C1CCN(*)CC1; Pyrrolidide = C1CCN(*)C1; Inp = O=C(O)C1CCNCC1; NHBn = c1ccc(CN*)cc1; Propionyl = CCC(=O)*; Ahx = NCCCCCC(=O)O; GABA = NCCCC(=O)O; NEt2 = CCN(CC)*
Target: Signal transducer and activator of transcription 3 (Mus musculus, UniProt P42227)
Sequence (P42227 whole entry): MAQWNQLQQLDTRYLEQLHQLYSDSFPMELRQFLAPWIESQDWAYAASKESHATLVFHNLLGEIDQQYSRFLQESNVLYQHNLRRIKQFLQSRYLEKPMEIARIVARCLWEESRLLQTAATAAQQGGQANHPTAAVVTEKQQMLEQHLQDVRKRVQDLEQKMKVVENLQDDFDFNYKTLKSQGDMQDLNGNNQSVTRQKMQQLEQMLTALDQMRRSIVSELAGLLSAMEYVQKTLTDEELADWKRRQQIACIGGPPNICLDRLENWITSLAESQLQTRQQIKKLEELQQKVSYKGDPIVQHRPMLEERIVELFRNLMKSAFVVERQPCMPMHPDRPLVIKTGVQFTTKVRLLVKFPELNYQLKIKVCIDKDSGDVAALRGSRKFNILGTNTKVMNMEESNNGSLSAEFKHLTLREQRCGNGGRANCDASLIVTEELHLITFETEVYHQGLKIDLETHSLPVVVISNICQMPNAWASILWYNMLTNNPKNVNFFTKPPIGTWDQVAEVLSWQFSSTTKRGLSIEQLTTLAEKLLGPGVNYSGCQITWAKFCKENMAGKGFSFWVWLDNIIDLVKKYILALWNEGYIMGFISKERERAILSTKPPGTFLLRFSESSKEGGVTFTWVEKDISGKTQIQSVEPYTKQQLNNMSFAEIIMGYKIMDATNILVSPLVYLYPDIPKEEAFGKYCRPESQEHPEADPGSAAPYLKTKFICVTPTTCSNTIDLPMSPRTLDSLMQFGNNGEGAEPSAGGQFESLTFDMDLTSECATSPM
Experiment: Fluorescence Polarization Assay
Description: Fluorescence polarization (FP) binding assay is utilizing the intrinsic property of the fluorescent probe, which will have low polarization value when free in solution. On binding to a target, the polarization of the probe will increase. Reaction mixtures of full length STAT3 alpha and the probe were placed in wells of a 96-well microtiter plate. The test peptide solution was added to each well. Fluorescence polarization was then read in a Tecan Polarian plate reader. The IC50 values were obtained from nonlinear regression analysis in the one-site competition mode. Peptides were assayed three times using three separate Stat3-probe preparations. IC50 values are reported as the mean of three IC50 values +/- the standard deviation.

IC50 [µM]	IC50 (pH 7.5, 22 °C)	Compound
36.6		CC(=O)N[C@@H](Cc1ccc(OP(=O)(O)O)cc1)C(=O)N[C@@H](CC(C)C)C(=O)N1CCC[C@H]1C(=O)Nc1cccc(C(N)=O)c1 [4-[(2S)-2-{[(2S)-1-[(2S)-2-[(3-carbamoylphenyl)carbamoyl]pyrrolidin-1-yl]-4-methyl-1-oxopentan-2-yl]carbamoyl}-2-acetamidoethyl]phenoxyphosphonic acid] (Ac-[pY]LP[3Abz]-NH2)
4.22		CCN(CC)C(=O)[C@H](CCC(N)=O)NC(=O)[C@@H]1CCCN1C(=O)[C@H](CC(C)C)NC(=O)[C@H](Cc1ccc(OP(=O)(O)O)cc1)NC(C)=O [4-[(2S)-2-{[(2S)-1-[(2S)-2-{[(1S)-3-carbamoyl-1-(diethylcarbamoyl)propyl]carbamoyl}pyrrolidin-1-yl]-4-methyl-1-oxopentan-2-yl]carbamoyl}-2-acetamidoethyl]phenoxyphosphonic acid] (Ac-[pY]LPQ-NEt2)
9.78		CC(=O)N[C@@H](Cc1ccc(OP(=O)(O)O)cc1)C(=O)N[C@@H](CC(C)C)C(=O)N1CCC[C@H]1C(=O)NCCCCCC(N)=O [4-[(2S)-2-{[(2S)-1-[(2S)-2-[(5-carbamoylpentyl)carbamoyl]pyrrolidin-1-yl]-4-methyl-1-oxopentan-2-yl]carbamoyl}-2-acetamidoethyl]phenoxyphosphonic acid] (Ac-[pY]LP[Ahx]-NH2)
	1.89 µM	CC(=O)N[C@@H](Cc1ccc(OP(=O)(O)O)cc1)C(=O)N[C@@H](Cc1ccccc1)C(=O)N1CCC[C@H]1C(=O)N[C@@H](CCC(N)=O)C(=O)N[C@H](C(N)=O)C(C)O (stereo partly drawn) [4-[(2S)-2-{[(2S)-1-[(2S)-2-{[(1S)-3-carbamoyl-1-{[(1S,2S)-1-carbamoyl-2-hydroxypropyl]carbamoyl}propyl]carbamoyl}pyrrolidin-1-yl]-1-oxo-3-phenylpropan-2-yl]carbamoyl}-2-acetamidoethyl]phenoxyphosphonic acid] (Ac-[pY]FPQ[Thr(3ξ)]-NH2)
	1.54 µM	CC(=O)N[C@@H](Cc1ccc(OP(=O)(O)O)cc1)C(=O)N[C@H](C(=O)N1CCC[C@H]1C(=O)N[C@@H](CCC(N)=O)C(=O)N[C@H](C(N)=O)C(C)O)C(C)C (stereo partly drawn) [4-[(2S)-2-{[(2S)-1-[(2S)-2-{[(1S)-3-carbamoyl-1-{[(1S,2S)-1-carbamoyl-2-hydroxypropyl]carbamoyl}propyl]carbamoyl}pyrrolidin-1-yl]-3-methyl-1-oxobutan-2-yl]carbamoyl}-2-acetamidoethyl]phenoxyphosphonic acid] (Ac-[pY]VPQ[Thr(3ξ)]-NH2)
2.11		CC(=O)N[C@@H](Cc1ccc(OP(=O)(O)O)cc1)C(=O)N[C@@H](CC(C)C)C(=O)N1CCC[C@H]1C(=O)N[C@@H](CCC(N)=O)C(=O)N1CCCC1 [4-[(2S)-2-{[(2S)-1-[(2S)-2-{[(2S)-4-carbamoyl-1-oxo-1-(pyrrolidin-1-yl)butan-2-yl]carbamoyl}pyrrolidin-1-yl]-4-methyl-1-oxopentan-2-yl]carbamoyl}-2-acetamidoethyl]phenoxyphosphonic acid] (Ac-[pY]LPQ-Pyrrolidide)
	> 100 µM	CC(=O)N[C@@H](Cc1ccc(OP(=O)(O)O)cc1)C(=O)N[C@H](C(=O)N1CCC[C@H]1C(=O)N[C@@H](CCC(N)=O)C(=O)N[C@H](C(N)=O)C(C)O)C(c1ccccc1)c1ccccc1 (stereo partly drawn) [4-[(2S)-2-{[(2S)-1-[(2S)-2-{[(1S)-3-carbamoyl-1-{[(1S,2S)-1-carbamoyl-2-hydroxypropyl]carbamoyl}propyl]carbamoyl}pyrrolidin-1-yl]-1-oxo-3,3-diphenylpropan-2-yl]carbamoyl}-2-acetamidoethyl]phenoxyphosphonic acid] (Ac-[pY][Dip]PQ[Thr(3ξ)]-NH2)
	9.87 µM	CC(=O)N[C@@H](Cc1ccc(OP(=O)(O)O)cc1)C(=O)N[C@@H](CC(C)C)C(=O)N1CCC[C@H]1C(=O)N[C@@H](CC[S+](C)[O-])C(=O)N[C@H](C(N)=O)C(C)O (stereo partly drawn) [4-[(2S)-2-{[(2S)-1-[(2S)-2-{[(1S)-1-{[(1S,2S)-1-carbamoyl-2-hydroxypropyl]carbamoyl}-3-methanesulfinylpropyl]carbamoyl}pyrrolidin-1-yl]-4-methyl-1-oxopentan-2-yl]carbamoyl}-2-acetamidoethyl]phenoxyphosphonic acid] (Ac-[pY]LP[Met(O)][Thr(3ξ)]-NH2)
	13.4 µM	CC(=O)N[C@@H](Cc1ccc(OP(=O)(O)O)cc1)C(=O)N[C@@H](CC(C)C)C(=O)NC1(C(=O)N[C@@H](CCC(N)=O)C(=O)N[C@H](C(N)=O)C(C)O)CCCCC1 (stereo partly drawn) [4-[(2S)-2-{[(1S)-1-[(1-{[(1S)-3-carbamoyl-1-{[(1S,2S)-1-carbamoyl-2-hydroxypropyl]carbamoyl}propyl]carbamoyl}cyclohexyl)carbamoyl]-3-methylbutyl]carbamoyl}-2-acetamidoethyl]phenoxyphosphonic acid] (Ac-[pY]L[Ac6c]Q[Thr(3ξ)]-NH2)
1.78		CC(=O)N[C@@H](Cc1ccc(OP(=O)(O)O)cc1)C(=O)N[C@@H](CC(C)C)C(=O)N1CCC[C@H]1C(=O)NCCCC(N)=O [4-[(2S)-2-{[(2S)-1-[(2S)-2-[(3-carbamoylpropyl)carbamoyl]pyrrolidin-1-yl]-4-methyl-1-oxopentan-2-yl]carbamoyl}-2-acetamidoethyl]phenoxyphosphonic acid] (Ac-[pY]LP[GABA]-NH2)
7		CC(=O)N[C@@H](Cc1ccc(OP(=O)(O)O)cc1)C(=O)N[C@@H](CC(C)C)C(=O)N1CCC[C@H]1C(=O)N[C@@H](CCC(N)=O)C(=O)N1CCCCC1 [4-[(2S)-2-{[(2S)-1-[(2S)-2-{[(2S)-4-carbamoyl-1-oxo-1-(piperidin-1-yl)butan-2-yl]carbamoyl}pyrrolidin-1-yl]-4-methyl-1-oxopentan-2-yl]carbamoyl}-2-acetamidoethyl]phenoxyphosphonic acid] (Ac-[pY]LPQ-Piperidide)
	1.07 µM	CCC(C)[C@H](NC(=O)[C@H](Cc1ccc(OP(=O)(O)O)cc1)NC(C)=O)C(=O)N1CCC[C@H]1C(=O)N[C@@H](CCC(N)=O)C(=O)N[C@H](C(N)=O)C(C)O (stereo partly drawn) [4-[(2S)-2-{[(2S)-1-[(2S)-2-{[(1S)-3-carbamoyl-1-{[(1S)-1-carbamoyl-2-hydroxypropyl]carbamoyl}propyl]carbamoyl}pyrrolidin-1-yl]-3-methyl-1-oxopentan-2-yl]carbamoyl}-2-acetamidoethyl]phenoxyphosphonic acid] (Ac-[pY][Ile(3ξ)]PQ[Thr(3ξ)]-NH2)
	38.6 µM and 33.1 µM	CC(=O)N[C@@H](Cc1ccc(OP(=O)(O)O)cc1)C(=O)N[C@@H](CC(C)C)C(=O)N1CCC[C@H](C(=O)N[C@@H](CCC(N)=O)C(=O)N[C@H](C(N)=O)C(C)O)C1 (stereo partly drawn) [23, Ac-pTyr-Leu-Nip-Gln-Thr-NH2-2] (Ac-[pY]L[X2]Q[Thr(3ξ)]-NH2)
	34.6 µM	CC(=O)N[C@@H](Cc1ccc(OP(=O)(O)O)cc1)C(=O)N[C@@H](CC(C)C)C(=O)N1CCC(C(=O)N[C@@H](CCC(N)=O)C(=O)N[C@H](C(N)=O)C(C)O)CC1 (stereo partly drawn) [4-[(2S)-2-{[(2S)-1-(4-{[(1S)-3-carbamoyl-1-{[(1S,2S)-1-carbamoyl-2-hydroxypropyl]carbamoyl}propyl]carbamoyl}piperidin-1-yl)-4-methyl-1-oxopentan-2-yl]carbamoyl}-2-acetamidoethyl]phenoxyphosphonic acid] (Ac-[pY]L[Inp]Q[Thr(3ξ)]-NH2)
	80 µM	CC(=O)N[C@@H](Cc1ccc(OP(=O)(O)O)cc1)C(=O)N[C@@H](CC(C)C)C(=O)N1CCC[C@H]1C(=O)N[C@@H](CCC(=O)N(C)C)C(=O)N[C@H](C(N)=O)C(C)O (stereo partly drawn) [4-[(2S)-2-{[(2S)-1-[(2S)-2-{[(1S)-1-{[(1S,2S)-1-carbamoyl-2-hydroxypropyl]carbamoyl}-3-(dimethylcarbamoyl)propyl]carbamoyl}pyrrolidin-1-yl]-4-methyl-1-oxopentan-2-yl]carbamoyl}-2-acetamidoethyl]phenoxyphosphonic acid] (Ac-[pY]LPE(NMe2)[Thr(3ξ)]-NH2)
1.69		CC(=O)N[C@@H](Cc1ccc(OP(=O)(O)O)cc1)C(=O)N[C@@H](CC(C)C)C(=O)N1CCC[C@H]1C(=O)N1CCC(CC(N)=O)C1 (stereo partly drawn) [4-[(2S)-2-{[(2S)-1-[(2S)-2-{[3-(carbamoylmethyl)pyrrolidin-1-yl]carbonyl}pyrrolidin-1-yl]-4-methyl-1-oxopentan-2-yl]carbamoyl}-2-acetamidoethyl]phenoxyphosphonic acid]
	> 100 µM	CC(=O)N[C@@H](Cc1ccc(OP(=O)(O)O)cc1)C(=O)N(C)[C@@H](CC(C)C)C(=O)N1CCC[C@H]1C(=O)N[C@@H](CCC(N)=O)C(=O)N[C@H](C(N)=O)C(C)O (stereo partly drawn) [4-[(2S)-2-{[(2S)-1-[(2S)-2-{[(1S)-3-carbamoyl-1-{[(1S,2S)-1-carbamoyl-2-hydroxypropyl]carbamoyl}propyl]carbamoyl}pyrrolidin-1-yl]-4-methyl-1-oxopentan-2-yl](methyl)carbamoyl}-2-acetamidoethyl]phenoxyphosphonic acid] (Ac-[pY][NMeL]PQ[Thr(3ξ)]-NH2)

Compound	IC50 [µM]	IC50 (pH 7.5, 22 °C)
CC(=O)N[C@@H](Cc1ccc(OP(=O)(O)O)cc1)C(=O)N[C@@H](CC(C)C)C(=O)N1CCC[C@H]1C(=O)N[C@@H](CCC(N)=O)C(=O)NCc1ccccc1 (Ac-[pY]LPQ-NHBn)	0.409	
CC(=O)N[C@@H](Cc1ccc(OP(=O)(O)O)cc1)C(=O)N[C@@H](CC(C)C)C(=O)N1CCC[C@H]1C(=O)N[C@@H](CCC(N)=O)C(=O)N[C@@H](C)c1ccccc1 [4-[(2S)-2-{[(2S)-1-[(2S)-2-{[(1S)-3-carbamoyl-1-{[(1S)-1-phenylethyl]carbamoyl}propyl]carbamoyl}pyrrolidin-1-yl]-4-methyl-1-oxopentan-2-yl]carbamoyl}-2-acetamidoethyl]phenoxyphosphonic acid] (Ac-[pY]LPQ-{NH(1S-phenylethyl)})	0.596	
CCC(=O)N[C@@H](Cc1ccc(OP(=O)(O)O)cc1)C(=O)N[C@@H](CC(C)C)C(=O)N1CCC[C@H]1C(=O)N[C@@H](CCC(N)=O)C(=O)N[C@H](C(N)=O)C(C)O (stereo partly drawn) [4-[(2S)-2-{[(2S)-1-[(2S)-2-{[(1S)-3-carbamoyl-1-{[(1S,2S)-1-carbamoyl-2-hydroxypropyl]carbamoyl}propyl]carbamoyl}pyrrolidin-1-yl]-4-methyl-1-oxopentan-2-yl]carbamoyl}-2-propanamidoethyl]phenoxyphosphonic acid] (Propionyl-[pY]LPQ[Thr(3ξ)]-NH2)		0.497 µM
